Assay results published in ChEMBL document CHEMBL1201862, “PubChem BioAssay data set” (2004).
Active and inactive are the calls of the source.

What was measured:
[1] = target: T1, Endoribonuclease toxin MazF (Escherichia coli K-12, UniProt P0AE70); assay: MazF toxin RNase activators, dose response, biochemical, fluorescence, single-stranded RNA substrate, uHTS hits (AID 588481); assay type: functional
T1 sequence (P0AE70 whole entry): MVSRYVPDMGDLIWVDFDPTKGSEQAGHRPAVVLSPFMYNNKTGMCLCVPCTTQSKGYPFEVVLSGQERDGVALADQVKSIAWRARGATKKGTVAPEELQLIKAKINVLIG

[2] = target: T1, Endoribonuclease toxin MazF; assay: fluorescent RNA oligo signal without MazF, dose response, counter-screen for MazEF activator project, biochemical, fluorescence, single-stranded RNase substrate (AID 588502); assay type: functional
[3] = target: T2, Replicative DNA helicase DnaB (Mycobacterium tuberculosis, UniProt P9WMR3); assay: DnaB intein splicing inhibitors, dose response, biochemical, cell-free fluorescence (AID 449749); assay type: functional
T2 sequence (P9WMR3 whole entry): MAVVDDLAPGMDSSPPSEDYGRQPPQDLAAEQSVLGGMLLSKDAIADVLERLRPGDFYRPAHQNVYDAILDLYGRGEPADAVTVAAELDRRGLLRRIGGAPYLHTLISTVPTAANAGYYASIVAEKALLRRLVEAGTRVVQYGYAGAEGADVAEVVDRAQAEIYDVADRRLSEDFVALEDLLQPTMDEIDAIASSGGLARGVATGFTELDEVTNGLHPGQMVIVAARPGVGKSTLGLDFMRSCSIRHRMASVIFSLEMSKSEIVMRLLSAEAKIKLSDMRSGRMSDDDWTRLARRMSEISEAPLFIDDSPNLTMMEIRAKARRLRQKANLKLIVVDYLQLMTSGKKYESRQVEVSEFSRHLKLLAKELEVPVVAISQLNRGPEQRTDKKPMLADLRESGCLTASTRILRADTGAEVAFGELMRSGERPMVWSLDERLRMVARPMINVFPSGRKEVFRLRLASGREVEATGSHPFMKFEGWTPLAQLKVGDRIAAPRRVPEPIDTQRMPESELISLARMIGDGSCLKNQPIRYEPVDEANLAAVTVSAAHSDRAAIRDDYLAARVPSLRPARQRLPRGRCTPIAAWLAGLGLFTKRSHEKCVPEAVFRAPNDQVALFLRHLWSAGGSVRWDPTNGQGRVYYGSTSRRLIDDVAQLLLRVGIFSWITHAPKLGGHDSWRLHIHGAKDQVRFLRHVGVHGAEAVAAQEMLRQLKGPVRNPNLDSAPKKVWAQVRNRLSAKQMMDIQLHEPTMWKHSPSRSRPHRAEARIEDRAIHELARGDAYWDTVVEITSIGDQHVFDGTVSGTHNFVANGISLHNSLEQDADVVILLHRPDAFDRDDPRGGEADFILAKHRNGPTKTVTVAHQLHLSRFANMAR

Protein RecA = target: T3, Protein RecA (Mycobacterium tuberculosis, UniProt P9WHJ3); assay: Fluorescence Cell-Free Homogeneous Dose Retest to Identify Inhibitors of RecA-Intein Splicing Activity. [Related pubchem assays (depositor defined):AID2097, AID2223, AID489010, AID492950]; assay type: functional
T3 sequence (P9WHJ3 whole entry): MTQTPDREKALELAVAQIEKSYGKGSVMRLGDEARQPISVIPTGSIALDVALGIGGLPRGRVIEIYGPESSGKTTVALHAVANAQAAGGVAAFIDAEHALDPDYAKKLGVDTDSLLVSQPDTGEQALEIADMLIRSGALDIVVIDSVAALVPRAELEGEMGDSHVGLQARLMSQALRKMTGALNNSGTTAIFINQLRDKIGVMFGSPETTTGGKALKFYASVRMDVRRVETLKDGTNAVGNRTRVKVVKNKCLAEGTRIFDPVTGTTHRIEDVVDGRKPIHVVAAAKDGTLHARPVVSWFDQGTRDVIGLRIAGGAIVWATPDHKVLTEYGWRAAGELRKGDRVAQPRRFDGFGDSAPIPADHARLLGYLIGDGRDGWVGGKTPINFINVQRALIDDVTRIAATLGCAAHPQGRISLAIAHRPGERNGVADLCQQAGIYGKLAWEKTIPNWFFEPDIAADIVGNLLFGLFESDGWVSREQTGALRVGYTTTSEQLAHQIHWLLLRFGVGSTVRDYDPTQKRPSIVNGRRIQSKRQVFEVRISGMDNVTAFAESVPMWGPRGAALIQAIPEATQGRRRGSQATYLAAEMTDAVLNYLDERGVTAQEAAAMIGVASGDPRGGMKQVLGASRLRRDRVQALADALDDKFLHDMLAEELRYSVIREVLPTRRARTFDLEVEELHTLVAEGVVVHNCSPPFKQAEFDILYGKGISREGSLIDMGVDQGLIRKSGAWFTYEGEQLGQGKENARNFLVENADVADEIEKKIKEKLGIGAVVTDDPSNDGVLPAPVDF

[4] = A549 cell cytotoxicity, dose response, cytotoxicity control, plate reader, cherry-pick, antagonist series (AID 743412); assay type: functional, cell-based
[5] = HepG2 cell cytotoxicity, dose response, cytotoxicity control, plate reader, cherry-pick, antagonist series (AID 743416); assay type: functional, cell-based
[6] = LGR2 antagonists, dose response, cell-based, HEK293, CRE-luciferase reporter, cherry pick, set 2 (AID 743343); assay type: functional;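 further: transfected cells were stimulated with diluted bursicon conditioned medium after compound addition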
[7] = MC4R antagonists, dose response, counter-screen for LGR2 antagonist project, cell-based, plate reader, cherry pick (AID 743444); assay type: functional;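 further: transfected HEK 293 cells stimulated with alpha-MSH peptide; potency of inhibitors of the alpha-MSH evoked signal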
[8] = HEK293 cell cytotoxicity, dose response, cytotoxicity control, plate reader, cherry-picked samples (AID 743446); assay type: functional, cell-based
[9] = P. falciparum late gametocyte killing, dose response, luminescence (AID 1117278); assay type: functional, cell-based;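 further: gametocytes exposed to compound for 24 hours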
[10] = Jurkat T cell cytotoxicity, dose response, cytotoxicity control for P. falciparum gametocyte viability project, luminescence (AID 1117277); assay type: functional, cell-based;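 further: potency reflects loss of cellular ATP meaning fewer viable cells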
Vero = assay: cells; assay type: functional, cell-based; details: Chlorocebus sabaeus
[11] = target: T4, High affinity choline transporter 1 (Homo sapiens, UniProt Q9GZV3); assay: CHT inhibitors, dose response, cell-based, 5-point CRC, membrane potential dye (AID 504840); assay type: functional
T4 sequence (Q9GZV3 whole entry): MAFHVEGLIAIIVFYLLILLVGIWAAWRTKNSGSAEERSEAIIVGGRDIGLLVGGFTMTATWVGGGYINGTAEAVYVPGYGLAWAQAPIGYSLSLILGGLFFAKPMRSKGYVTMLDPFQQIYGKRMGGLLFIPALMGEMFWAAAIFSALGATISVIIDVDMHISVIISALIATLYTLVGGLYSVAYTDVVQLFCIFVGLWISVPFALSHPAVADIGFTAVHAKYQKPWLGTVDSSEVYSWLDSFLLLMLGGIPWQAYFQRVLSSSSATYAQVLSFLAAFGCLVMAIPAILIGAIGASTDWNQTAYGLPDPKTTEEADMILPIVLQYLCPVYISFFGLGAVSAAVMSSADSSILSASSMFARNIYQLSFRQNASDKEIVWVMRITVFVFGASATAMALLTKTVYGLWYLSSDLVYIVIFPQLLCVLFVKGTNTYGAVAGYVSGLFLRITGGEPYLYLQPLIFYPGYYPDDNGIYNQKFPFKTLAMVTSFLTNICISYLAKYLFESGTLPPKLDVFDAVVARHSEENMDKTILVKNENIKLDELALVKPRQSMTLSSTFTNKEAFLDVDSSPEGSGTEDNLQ

Coagulation factor XII = target: T5, Coagulation factor XII (Homo sapiens, UniProt P00748); assay type: functional;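 further: activated factor XIIa alpha cleaving a fluorogenic AMC peptide substrate; inhibitor potency from loss of enzyme activity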
T5 sequence (P00748 whole entry): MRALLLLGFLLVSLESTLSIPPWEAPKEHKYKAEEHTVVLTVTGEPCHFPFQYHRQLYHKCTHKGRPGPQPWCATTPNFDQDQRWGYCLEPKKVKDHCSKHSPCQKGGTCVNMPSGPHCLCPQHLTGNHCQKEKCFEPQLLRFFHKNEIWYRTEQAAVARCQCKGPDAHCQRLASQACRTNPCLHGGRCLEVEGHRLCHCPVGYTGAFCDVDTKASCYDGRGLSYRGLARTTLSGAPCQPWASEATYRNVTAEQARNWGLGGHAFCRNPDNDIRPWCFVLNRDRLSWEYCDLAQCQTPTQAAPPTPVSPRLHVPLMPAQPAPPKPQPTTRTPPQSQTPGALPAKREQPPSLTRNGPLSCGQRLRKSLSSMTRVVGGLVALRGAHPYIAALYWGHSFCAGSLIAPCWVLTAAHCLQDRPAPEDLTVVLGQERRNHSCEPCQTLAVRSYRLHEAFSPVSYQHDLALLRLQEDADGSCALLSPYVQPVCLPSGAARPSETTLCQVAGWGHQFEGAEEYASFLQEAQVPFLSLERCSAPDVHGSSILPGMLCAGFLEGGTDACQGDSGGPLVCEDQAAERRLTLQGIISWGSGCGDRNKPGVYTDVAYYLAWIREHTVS

Paired box protein Pax-8 = Paired box protein Pax-8 (Homo sapiens, UniProt Q06710); assay: inhibitors of PAX8-driven TPO luciferase reporter, dose response, RMG-I cells, cherry-pick (AID 687027); assay type: functional, cell-based;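 further: luciferase reporter driven by Pax8 target thyroperoxidase promoter measured by SteadyGlo luminescence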
Chain of Paired box protein Pax-8 (Q06710 whole entry): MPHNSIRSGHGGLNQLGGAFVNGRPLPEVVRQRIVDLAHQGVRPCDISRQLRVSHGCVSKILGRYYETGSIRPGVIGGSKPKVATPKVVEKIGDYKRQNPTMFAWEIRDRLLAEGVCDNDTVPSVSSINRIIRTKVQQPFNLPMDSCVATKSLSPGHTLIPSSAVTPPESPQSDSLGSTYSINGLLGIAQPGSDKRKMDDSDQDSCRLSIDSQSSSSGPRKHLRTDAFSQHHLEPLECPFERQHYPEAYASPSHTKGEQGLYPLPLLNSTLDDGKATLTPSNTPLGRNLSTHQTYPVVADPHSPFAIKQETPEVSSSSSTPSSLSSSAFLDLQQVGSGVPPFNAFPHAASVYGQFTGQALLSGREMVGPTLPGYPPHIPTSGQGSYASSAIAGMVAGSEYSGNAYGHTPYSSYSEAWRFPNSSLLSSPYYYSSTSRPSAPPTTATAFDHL

[12] = target: T6, Mannose-6-phosphate isomerase (Homo sapiens, UniProt P34949); assay: human PMI inhibitors, high substrate, primary screen, biochemical, fluorescence intensity, high mannose 6-phosphate (AID 1220)
T6 sequence (P34949 whole entry): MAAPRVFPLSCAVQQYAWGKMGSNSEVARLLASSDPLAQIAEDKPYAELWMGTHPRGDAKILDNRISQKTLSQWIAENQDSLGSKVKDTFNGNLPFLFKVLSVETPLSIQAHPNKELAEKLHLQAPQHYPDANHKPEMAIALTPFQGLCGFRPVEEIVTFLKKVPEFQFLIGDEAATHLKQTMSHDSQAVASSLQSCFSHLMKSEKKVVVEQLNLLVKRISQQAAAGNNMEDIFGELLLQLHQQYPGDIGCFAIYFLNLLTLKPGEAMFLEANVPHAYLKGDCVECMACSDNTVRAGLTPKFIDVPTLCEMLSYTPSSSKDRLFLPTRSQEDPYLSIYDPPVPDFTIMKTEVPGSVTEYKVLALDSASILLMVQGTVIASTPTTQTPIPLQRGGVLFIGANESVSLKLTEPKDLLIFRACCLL

[13] = target: Glyceraldehyde-3-phosphate dehydrogenase (Homo sapiens, UniProt P04406)
Chain of Glyceraldehyde-3-phosphate dehydrogenase (P04406 whole entry): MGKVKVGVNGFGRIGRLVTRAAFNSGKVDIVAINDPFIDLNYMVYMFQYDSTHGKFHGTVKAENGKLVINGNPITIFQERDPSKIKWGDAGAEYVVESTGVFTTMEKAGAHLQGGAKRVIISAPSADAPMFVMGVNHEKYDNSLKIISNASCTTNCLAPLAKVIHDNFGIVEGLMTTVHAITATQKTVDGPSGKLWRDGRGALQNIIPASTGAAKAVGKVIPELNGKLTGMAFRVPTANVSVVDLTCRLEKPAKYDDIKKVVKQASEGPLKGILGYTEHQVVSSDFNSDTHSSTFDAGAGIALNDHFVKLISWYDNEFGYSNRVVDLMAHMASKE

CCOc1ccc2c(c1)c1nc3ccccc3nc1n2C
EC50 [1]: > 99 µM (inactive)
EC50 [2]: > 99 µM (inactive)

CN(C(=O)c1ccc(S(=O)(=O)c2cccc(Cl)c2)c([N+](=O)[O-])c1)C1CCCCC1
AC50 [3]: 5.56 µM (active)
EC50 (Protein RecA): 4.33 µM (active)
AC50 [4]: 15.8 µM (active)
AC50 [5]: 16.2 µM (active)
AC50 [6]: 5.15 µM (active)
AC50 [7]: 7.45 µM (active)
AC50 [8]: 13.8 µM (active)

Cc1nn(CCCC(=O)O)c(C)c1[N+](=O)[O-]
IC50 [9]: > 109 µM (inactive)
IC50 [10]: > 83.4 µM (inactive)

COc1ccc(NC(=O)[C@H](Cc2c[nH]c3ccccc23)NC(=O)[C@@H]2Cc3ccccc3CN2)cc1
IC50 (Vero): 11.8 µM (active)

Cc1ccc(C[S+]([O-])Cc2ccc(C(=O)NC3CCC(C)CC3)o2)cc1 (centres undefined)
IC50 [11]: 13.8 µM (active)

CCN(CC)CCCNC(=O)c1cc(-c2ccc(Cl)c(Cl)c2)on1
IC50 [11]: 12.9 µM (active)

NS(=O)(=O)c1ccc(Cl)cc1[N+](=O)[O-]
IC50 (Coagulation factor XII): > 50 µM (inactive)

Oc1ccccc1-c1nc(NCc2ccccc2)c2ccccc2n1
EC50 [1]: > 99 µM (inactive)
EC50 [2]: > 99 µM (inactive)

Cc1ccc(-n2c(C)nn(Cc3ccc([N+](=O)[O-])cc3)c2=O)cc1
IC50 [9]: > 109 µM (inactive)
IC50 [10]: > 83.4 µM (inactive)

O=C(Nc1ccc(Cl)c(C(F)(F)F)c1)N1CCCC(O)C1 (centres undefined)
IC50 (Coagulation factor XII): > 50 µM (inactive)

Cn1nnnc1Sc1ncnc2scc(-c3cccc(C(F)(F)F)c3)c12
AC50 (Paired box protein Pax-8): 3.41 µM (active)
AC50 [4]: 10.1 µM (active)
AC50 [5]: 16.4 µM (active)
AC50 [6]: 6.18 µM (active)
AC50 [7]: 5.97 µM (active)
AC50 [8]: 9.08 µM (active)

CCC(=O)NC(C)C(c1cccs1)N1CCOCC1 (centres undefined)
IC50 [9]: > 109 µM (inactive)
IC50 [10]: > 83.3 µM (inactive)

CC(=O)NS(=O)(=O)c1ccc(NC(=S)NC(=O)c2ccco2)cc1
IC50 (Coagulation factor XII): > 50 µM (inactive)

CN(C)S(=O)(=O)c1cccc(NC(=O)COC(=O)COc2ccc(Br)cc2)c1
IC50 [9]: > 109 µM (inactive)
IC50 [10]: > 83.3 µM (inactive)

O=C(Nc1ccc(S(=O)(=O)Nc2cnc3ccccc3n2)cc1)c1cc(F)c(F)cc1Cl
IC50 [11]: 12.1 µM (active)

COc1cc(C(N)=O)cc(Cl)c1OC
IC50 (Coagulation factor XII): > 50 µM (inactive)

O=C(O)COc1ccc(NC(=O)c2cccs2)cc1
IC50 [9]: > 109 µM (inactive)
IC50 [10]: > 83.3 µM (inactive)

CC/C(C)=N/NS(=O)(=O)c1ccc(C)c([N+](=O)[O-])c1
EC50 [1]: > 99 µM (inactive)
EC50 [2]: 7.91 µM (active)

CC(/C=C/c1ccco1)=N\NC(=O)CNc1ccc2ccccc2c1
IC50 [12]: > 50 µM (not active)

CC(C)CCNC(=O)c1cc(-c2ccc(Cl)cc2Cl)n[nH]1
IC50 [13]: > 10 µM (inconclusive)
